The text below walks through data of patent publication US20230293470A1, “APPLICATION OF THYROID HORMONES AND ITS ANALOGUES IN PREPARATION OF DRUGS FOR TREATING ALPHA-THALASSEMIA” (SHANGHAI SPH RARE DISEASE PHARMACEUTICAL CO., LTD., priority 2020, published 2023).

Assay [1] relates to zeta-globin gene (hbae5) expression in zebrafish embryos. The assay is described as follows: Whole-mount mRNA in situ hybridization (WISH) of zeta-globin gene (hbae5) in zebrafish embryos. Type of assay: in vivo. Particulars: 5 μmon, from 96 hours post fertilization, 24 hours treatment. As to the method:
(§1) K562 cells were cultured in RPMI 1640 medium supplemented with 10% (v/v) fetal bovine serum; Hemin was dissolved into 0.2 mol/L NaOH solution, and the working concentration for treating K562 cells is 20 μmon; Triac, T3 and T4 were dissolved into dimethyl sulfoxide (DMSO), and the working concentration for treating K562 cells and zebrafish embryos is 20 μmon and 5 μmon, respectively.
During the development of zebrafish embryos, Triac, T3 and T4 were incubated with the zebrafish embryos at 96 hours post fertilization. After treatment with Triac, T3 and T4 for 24 hours, respectively, zebrafish embryos were fixed by 4% paraformaldehyde. The expression of zeta-globin gene (hbae5) was detected by Whole-mount mRNA in situ hybridization (WISH).

Assay [2] shares this test system. Description: qPCR of zeta-globin gene (hbae5) expression in zebrafish embryos. The assay is classed as in vivo. Particulars: 5 μmon, from 96 hours post fertilization, 24 hours treatment. How it is done: as §1
During the development of zebrafish embryos, Triac, T3 and T4 were incubated with the zebrafish embryos at 96 hours post fertilization. After treatment with Triac, T3 and T4 for 24 hours, respectively, zebrafish embryos were collected. TRIzol reagent (Invitrogen) was used to extract total RNA, then a reverse transcription kit (ReverTra Ace, TOYOBO) was used to synthesize cDNA, and finally, a SYBRGreen Realtime PCR Master Mix (TOYOBO) reagent was used to perform quantitative PCR.
(§2) A quantitative PCR reaction system was as follows:
(§3) Conditions for a quantitative PCR reaction were as follows: • Hot start: 95° C., 10 minutes; • Denaturation: 95° C., 10 seconds; and • Annealing/stretching: 60° C., 30 seconds. • 40 cycles.
(§4) Dissolution Curve Analysis.
A general note: In qPCR the cycle at which signal appears reflects the starting amount.

For assay [3], the system named is zeta-globin gene (HBZ) expression in K562 cells. Description: qPCR of zeta-globin gene (HBZ) expression in hemin-treated K562 cells. Conditions: hemin 20 μmon plus Triac 20 μmon, 72 hours. Type of assay: cell-based, human. How it is done:
as §1
K562 cells were treated with hemin or hemin plus Triac for 72 hours, respectively, centrifugation was performed at 2000 rpm for 5 minutes to collect cells, a TRIzol reagent (Invitrogen) was used to extract total RNA, then a reverse transcription kit (ReverTra Ace, TOYOBO) was used to synthesize cDNA, and finally, a SYBR Green Realtime PCR Master Mix (TOYOBO) reagent was used to perform quantitative PCR.
as §2, §3, §4

As to `N[C@@H](Cc1cc(I)c(Oc2cc(I)c(O)c(I)c2)c(I)c1)C(=O)O` [T4, 3,3′,5,5′-tetraiodothyronine], the “induction of expression of zeta-globin gene (hbae5), WISH” value (shortened to “induction”) in assay [1] is listed as “significantly induce”. Further, the “up-regulation of expression of zeta-globin gene (hbae5), qPCR” value (shortened to “up-regulation … (hbae5), qPCR”) in assay [2] is listed as 41 folds.

On to `N[C@@H](Cc1cc(I)c(Oc2ccc(O)c(I)c2)c(I)c1)C(=O)O` [T3, 3,3′,5-Triiodo-L-thyronine], for which the “induction” value in assay [1] is given as “significantly induce”. Also, the “up-regulation … (hbae5), qPCR” value in assay [2] is reported as 31 folds.

With `O=C(O)Cc1cc(I)c(Oc2ccc(O)c(I)c2)c(I)c1` [Triac, 2-[4-(4-hydroxy-3-iodophenoxy)-3,5-diiodophenyl] acetic acid], in assay [1], the “induction” value is on record as “significantly induce”. For the same compound, the “up-regulation of expression of zeta-globin gene (HBZ), qPCR” value in assay [3] is listed as 50.9 folds. Also, the “up-regulation … (hbae5), qPCR” value in assay [2] is reported as 76 folds.
